Consider 7 substances from article PMC11607671, “Antiviral activity of cathelicidins against porcine epidemic diarrhea virus (PEDV): Mechanisms, and efficacy” (Virus Research, 2024).

Data set [1] deals with PEDV-GFP. The experiment in a line: Co-incubation antiviral assay, PEDV-GFP MOI=0.3, Vero cells (fluorescence microscopy and flow cytometry). The class given is cell-based, Porcine epidemic diarrhea virus. As for the experimental part:
(§1) In order to determine the effect of AMPs on the infectivity of PEDV, Vero cells (5 × 10^5 per well) were seeded in 12-well plates and cultured overnight at 37 °C, 5% CO2. In a co-incubation of virus and AMPs experiments (Fig. 2A), the mixture of AMPs (0–10 µM) and PEDV-GFP (MOI= 0.3) in a 1 mL volume of DMEM (P/S + 10% FCS) was added to the cells and incubated at 37 °C. After 2 h, the supernatant was replaced with fresh DMEM (P/S + 10% FCS) and incubated for 24 h. Subsequently, the cells were washed 2 times with flow cytometry buffer (500 mL PBS+ 10 mL FCS+ 250 µL of 10% NaN3) and were imaged with an EVOS M5000 Imaging System for semi-quantitative determination of infectivity. Eventually, cells were carefully detached by 2.5% trypsin, stained with ViaKrome 808 fixable viability dye (1:1000), and incubated for 30 min at 4 °C. Following washing, the cells were fixed using 50 µL of 4% PFA for 10 min, and a minimum of 1 × 10^5 cells were acquired using the CytoFLEX LX Flow Cytometer (FC)(Beckman Coulter, USA). Data was analyzed using FlowJo software v.10.6 (Flowjo LCC, Ashland, OR, USA).
Fig. 2 Effect of AMPs on the infectivity of PEDV (MOI=0.3). A) Experimental set-up of the ‘co-incubation assay’; Vero cells were subjected to 2 h exposure to a combination of AMPs and PEDV-GFP. Afterward, the supernatant was replaced, and the cells were incubated for an additional 24 h B) Fluorescent microscopy (20 × magnification) was performed to visualize the fluorescence signal of GFP in the presence of 1, 5, and 10 µM AMPs. The cell-only sample consists exclusively of cells while the no-peptide sample contains only PEDV-GFP, with no peptides present.
Fig. 3 Antiviral activity of AMPs as determined by flow cytometry (FC). A) The percentage of GFP-positive cells following a 2 h incubation with a combination of PEDV and AMPs. […] The values reported here depict the average ± SD derived from three independent experiments performed in duplicate. * p < 0.05; ** p < 0.01.

In data set [2] the test system is PEDV. The experiment in a line: Co-incubation antiviral assay, PEDV MOI=1, Vero cells. Format: cell-based, Porcine epidemic diarrhea virus. The following applies: PEDV MOI=1, co-incubation, Vero cells, FC; Fig. 4B. As to the method:
as §1
Fig. 4 The inhibitory effect of AMPs on PEDV at MOI=1. A) Fluorescence microscopy image was captured at 20 × magnification to visualize the GFP fluorescence signal in Vero cells following co-incubation of AMPs and PEDV at MOI=1. B) The percentage of GFP-positive cells was determined by FC after 3 h co-incubation of PEDV and AMPs. C) The fluorescence intensity of GFP across three different concentrations of LL-37 was illustrated through the FC histogram. […] The reported values in 4A represent the mean ± SD of three independent experiments performed in duplicate **** p < 0.0001.

For data set [3], the system named is PEDV-GFP. In words: Pre-incubation (pre-treatment) antiviral assay. The following applies: Vero cells treated 3 h with AMPs (0-10 µM), washed, then infected with PEDV-GFP MOI 0.3 for 2 h; FC; Fig. 6B, C. The class given is cell-based, Porcine epidemic diarrhea virus. As to the method:
The effect of AMPs on viral infectivity was also determined when they were added to Vero-cells before (pre-treatment) or after (post-treatment) infection. In the pre-treatment assay (Fig. 6A), Vero cells were treated with different concentrations of CATH-B1 and LL-37 peptides (ranging from 0 to 10 µM) for various durations (1, 2, 3, 4, and 24 h) at 37 °C. Subsequently, the cells were washed 2 times with PBS and infected with PEDV-GFP at an MOI of 0.3 for 2 h
In post-incubation assays (Fig. 7A), cells were initially exposed to the virus for 2 h, washed 2times with PBS and subsequently treated with AMPs for 3 h Both for pre- and post-infection assays, after the respective incubation periods, the cells were assessed using fluorescence microscopy and quantified using FC as described above.
Fig. 6 Effects of AMPs in pre-incubation assay. A) Experimental set-up of pre-incubation experiment. B) FC was employed to quantify the percentage of GFP-positive cells during pre-incubation. […] The reported values represent the mean ± SD derived from three independent experiments performed in triplicate. * p < 0.05; ** p < 0.01.

In data set [4] the test system is PEDV. The experiment in a line: Peptide-virus interaction assay with Capto Core 700 beads. The following applies: Fig. 8. Format: cell-based, Porcine epidemic diarrhea virus. As for the experimental part:
In order to determine if CATH-B1 and LL-37 physically interact with PEDV, Capto Core 700 beads (GE Healthcare Life Sciences, Chicago, IL, USA) were used to selectively eliminate unbound AMPs. PEDV were pre-incubated with or without CATH-B1/LL-37 in Opti-MEM medium, and Capto Core 700 beads were added, followed by a 1 h incubation at 4 °C while slowly rotating. After centrifugation, supernatants were collected and applied to the cells. To make sure the AMP was removed effectively, we tested samples with peptides but no virus using the same process. The collected supernatants were used to inoculate cells, and the number of infected cells was determined using the described method.
Fig. 8 Interactions between CATH-B1 and LL-37 with PEDV. CATH-B1/LL-37 were pre-incubated with the virus, and subsequently, the peptide and virus were separated using Capto Core beads. The supernatant containing the separated virus was then employed to infect Vero cells. […] The data is presented as the mean ± SEM of three independent experiments in duplicate, each with triplicate samples. **** p < 0.0001.

The test system of data set [5] is PEDV. The experiment in a line: Transmission electron microscopy of peptide-treated virus. The arrangement: species or system Porcine epidemic diarrhea virus. Particulars: PEDV treated with 10 µM peptide, negative stain, Fig. 9; for effect on virus morphology / membrane (TEM): one minute at 37 °C. As for the experimental part: PEDV was treated with CATH-B1, LL-37, PMAP-23, and PMAP-36 for one minute at 37 °C. Subsequently, 10 µL of the sample was placed onto a freshly carbon-coated copper grid. The grids were washed 3 times with PBS and then fixed with 1% glutaraldehyde (Sigma-Aldrich, St. Louis, MO, USA) in PBS for 10 min. Following this fixation, the grids were rinsed 2 times with PBS and 4 times with MilliQ water. They were stained for 5 min in Uranyl Acetate (pH 7) then briefly washed with methylcellulose/uranyl acetate (pH 4) and incubated for 5 min on ice. Finally, the grids were looped out of the solution and air-dried. The samples were subsequently examined in a JEM1010 (JEOL) equipped with a Veleta 2k × 2k CCD camera (EMSIS, Munster, Germany).
Fig. 9 The effect of AMPs on the morphology of the virus. PEDV (MOI=0.3), which was pre-incubated with peptides. TEM images were taken of PEDV alone (A–D), PEDV treated with 10 µM LL-37 (E-H), PEDV treated with 10 µM CATH-B1 (I-L), PEDV treated with 10 µM PMAP-23 (M, N), and PEDV treated with 10 µM PMAP-36 (O, P). […] Micrographs were captured with a pixel size of 0,5 nm and analyzed visually using ImageJ. The micrographs are representative of observations from three independent experiments. Scale bars represent 100 nm.

For data set [6], the system named is PEDV-GFP. The experiment in a line: Co-incubation antiviral assay of the extended AMP panel and of FL LL-37. Format: cell-based, Porcine epidemic diarrhea virus. Particulars: FC; for prevention of PEDV-GFP entry into Vero cells, extended AMP panel, in words: co-incubation with PEDV-GFP, 1 and 5 µM, 3 h, two independent experiments in duplicate, Fig. 5. As for the experimental part: as §1
This extended panel of AMPs encompassed chicken-derived peptides (D-CATH-2, l-CATH-2), mouse-derived peptide (CRAMP), horse-derived peptides (eCATH-1, eCATH-3), parrot-derived peptides (ER2, ER3, AG3), and synthetic peptides (CR165, CR174), all of which were readily accessible within our laboratory. As previously described, these AMPs were co-incubated with PEDV.
Fig. 5 Antiviral effects of a diverse group of AMPs on PEDV infection. Vero cells were incubated for 3 h with a combination of PEDV-GFP and AMPs, as described previously. FC was utilized to assess the inhibitory impact of AMPs.
Figure S4. The antiviral activity of FL LL-37 (fluorogenic LL-37 ) and unlabeled LL-37. Peptides were co-incubated at 1 and 5 µM with PEDV and added to Vero cells for 3 h, followed by FC analysis to examine the infectivity.

On to “PIRNWWIRIWEWLNGIRKRLRQRSPFYVRG HLNVTSTPQP (PIRNWWIRIWEWLNGIRKRLRQRSPFYVRGHLNVTSTPQP) [CATH-B1, chicken cathelicidin, 40 residues]”, for which the “percentage of GFP-positive cells (FC), co-incubation” value in the data set on PEDV-GFP [1] (10 µM peptide, PEDV-GFP MOI=0.3, 2 h co-incubation then 24 h, no-peptide control approximately 35%, three independent experiments in duplicate, Fig. 3A) is 1–2%. Further, the “infected cells by fluorescent microscopy, co-incubation” value in the data set on PEDV-GFP [1] (PEDV-GFP MOI=0.3, 5 and 10 µM peptide, 2 h co-incubation then 24 h, compared to control without peptide, Fig. 2B) is “reduced numbers of infected cells”. In the data set on PEDV [2], the “antiviral effect at MOI=1, in words” value was “diminished as the MOI increased”. The “antiviral activity in pre-incubation assay, in words” value in the data set with PEDV-GFP [3] is recorded as “strong activity only at 10 μM”. Also, the “virus infectivity, peptide pre-incubated with beads before PEDV introduction” value in the data set on PEDV [4] (Capto Core 700 beads, Vero cells) is given as “minimal effects on virus infectivity”. For the same substance, in the data set with PEDV [4] (no Capto Core 700 beads, Vero cells), the “virus infectivity, peptide incubated with PEDV without beads” value is “a decrease in virus infectivity”. Moreover, the “antiviral activity when peptide is combined with virus and beads” value with PEDV [4] (peptide + PEDV, then Capto Core 700 beads 1 h at 4 °C, supernatant applied to Vero cells) is “remained unchanged”. In the data set on PEDV [5], the “virus aggregation (TEM)” value is “extensive virus aggregation” and the “effect on virus morphology / membrane (TEM)” value is listed as “significant membrane damage”.
Turning to “RRWVQRWIRRWRKVAAARRWVQRWIRRWRPKV [CR-174, non-naturally occurring synthetic (designed) AMP]”, in the data set on PEDV-GFP [6], the “prevention of PEDV-GFP entry into Vero cells, extended AMP panel, in words” value (“prevention” for short) was “unsuccessful in significantly preventing PEDV-GFP entry”.
Take “Tamra-(ahx)-LLGDFFRKSKEKIGKEFKRIVQRIKDFLRNLVPRTES [FL LL-37]”: in the data set on PEDV-GFP [6] (1 and 5 µM co-incubated with PEDV, Vero cells 3 h, compared with unlabeled LL-37, Fig. S4), the “effect of fluorogenic labelling on antiviral activity” value is recorded as “no effect on the antiviral activity”. Moreover, the “cellular localization (confocal microscopy)” value in the data set with Vero cells (1 and 5 µM, 1 and 3 h incubation, Vero cells, fixed, DAPI, Fig. 10B) is given as “predominant intracellular localization”. Further, in the data set with Vero cells (3 h incubation with Vero cells, washing, FC fluorescence, two concentrations, unlabeled LL-37 as negative control, Fig. 10A), the “uptake or attachment to Vero cells (FC)” value was “substantial concentration-dependent uptake or attachment”. Moreover, the “uptake at 4 °C (FC)” value with Vero cells (Vero cells at 4 °C versus 37 °C, 1 and 5 µM, 30, 60, 180 min, Fig. S5) was “significant reduction in the uptake”.
Consider “RIIDLLWRVRRPQKPKFVTVWVR [PMAP-23, porcine cathelicidin, 23 residues]”, for which the “effect on virus morphology / membrane (TEM)” value in the data set with PEDV [5] is given as “structure remained unchanged”.
“ISRLAGLLRKGGEKIGEKLKKIGQKIKNFFQKLVPQPE [CRAMP, mouse-derived peptide, 38 residues]”: in the data set on PEDV-GFP [6], the “prevention” value was “failed to neutralize PEDV”.
In the case of “GRFRRLRKKTRKRLKKIGKVLKWIPPIVGSIPLGCG [PMAP-36, porcine cathelicidin, 36 residues]”, the “effect on virus morphology / membrane (TEM)” value in the data set on PEDV [5] is on record as “structure remained unchanged”.
For “RRWVQRWIRWVQRWVR [CR-165, non-naturally occurring synthetic (designed) AMP]”, the “prevention” value in the data set with PEDV-GFP [6] is on record as “unsuccessful in significantly preventing PEDV-GFP entry”.
